Experimental data from US8183271B2, “Tetrazole derivatives and their use for the treatment of cardiovascular diseases” (Bayer Intellectual Property GmbH, priority 2005, dated 2012).

tested on: saphenous artery rings; experiment: Vasorelaxant effect in vitro (phenylephrine-contracted artery rings); type: cell-based, Rabbits; conditions: Oryctolagus cuniculus, rabbit saphenous artery rings, contraction induced by phenylephrine
Experimental: Rabbits are anesthetized and sacrificed by intravenous injection of thiopental sodium (about 50 mg/kg) and exsanguinated. The saphenous artery is removed and divided into rings 3 mm wide. The rings are mounted singly on in each case a pair of triangular hooks open at the end and made of 0.3 mm-thick special wire (Remanium®). Each ring is placed under an initial tension in 5 ml organ baths with Krebs-Henseleit solution which is at 37° C., is gassed with 95% O2/5% CO2 and has the following composition: NaCl 119 mM; KCl 4.8 mM; CaCl2×2H2O 1 mM; MgSO4×7H2O 1.4 mM; KH2PO4 1.2 mM; NaHCO3 25 mM; glucose 10 mM; bovine serum albumin 0.001%. The force of contraction is detected with Statham UC2 cells, amplified and digitized via A/D converters (DAS-1802 HC, Keithley Instruments, Munich) and recorded in parallel on chart recorders. Contractions are induced by addition of phenylephrine.
After several (generally 4) control cycles, the substance to be investigated is added in each further run in increasing dosage, and the height of the contraction achieved under the influence of the test substance is compared with the height of the contraction reached in the last preceding run. The concentration necessary to reduce the contraction reached in the preceding control by 50% is calculated from this (IC50). The standard application volume is 5 μl. The proportion of DMSO in the bath solution corresponds to 0.1%.

SMILES | IC50 [nM]
CC(C)(C)c1ccc(COc2ccccc2/C=C/C(CCc2ccc(-c3nnn[nH]3)cc2)Cc2ccc(C(=O)O)cc2)c(Cl)c1 (single isomer, unassigned) [Example 3, 4-((3E)-4-{2-[(4-tert-Butyl-2-chlorobenzyl)oxy]phenyl}-2-{2-[4-(1H-tetrazol-5-yl)phenyl]ethyl}but-3-en-1-yl)benzoic acid] | 682
O=C(O)c1ccc(CCC(/C=C/c2ccccc2OCCCCCc2ccccc2)Cc2ccc(-c3nnn[nH]3)cc2)cc1 (single isomer, unassigned) [Example 14, 4-{(4E)-5-{2-[(5-Phenylpentyl)oxy]phenyl}-3-[4-(1H-tetrazol-5-yl)benzyl]pent-4-en-1-yl}benzoic acid] | 1320
COc1ccc(CCc2ccc(F)cc2/C=C\C(CCc2ccc(C(=O)O)cc2)Cc2ccc(-c3nnn[nH]3)cc2)cc1 (centres unmarked) [Example 17, 4-{(4Z)-5-{5-Fluoro-2-[2-(4-methoxyphenyl)ethyl]phenyl}-3-[4-(1H-tetrazol-5-yl)benzyl]pent-4-en-1-yl}benzoic acid] | 5800
COc1ccc(CCc2ccc(F)cc2/C=C/C(CCc2ccc(C(=O)O)cc2)Cc2ccc(-c3nnn[nH]3)cc2)cc1 (centres unmarked) [Example 18, 4-{(4E)-5-{5-Fluoro-2-[2-(4-methoxyphenyl)ethyl]phenyl}-3-[4-(1H-tetrazol-5-yl)benzyl]pent-4-en-1-yl}benzoic acid] | 890
O=C(O)c1ccc(CCC(/C=C/c2ccccc2OCc2ccc(-c3ccc(C(F)(F)F)cc3)cc2)Cc2ccc(-c3nnn[nH]3)cc2)cc1 (centres unmarked) [Example 21, 4-[(4E)-3-[4-(1H-Tetrazol-5-yl)benzyl]-5-(2-{[4′-(trifluoromethyl)biphenyl-4-yl]-methoxy}phenyl)pent-4-en-1-yl]benzoic acid] | 372

Results, then the compound that gave them:

IC50 [nM] | SMILES
1990 | CC(C)(C)c1ccc(COc2ccccc2/C=C/C(CCCCC(=O)O)CCc2ccc(-c3nnn[nH]3)cc2)cc1 (single isomer, unassigned) [Example 29, (7E)-8-{2-[(4-tert-Butylbenzyl)oxy]phenyl}-6-{2-[4-(1H-tetrazol-5-yl)phenyl]ethyl}oct-7-enoic acid]
760 | CC(C)(C)c1ccc(COc2ccccc2/C=C/C(CCCCC(=O)O)Cc2ccc(-c3nnn[nH]3)cc2)cc1 (single isomer, unassigned) [Example 36, (7E)-8-{2-[(4-tert-Butylbenzyl)oxy]phenyl}-6-[4-(1H-tetrazol-5-yl)benzyl]oct-7-enoic acid]
567 | O=C(O)c1ccc(CCC(/C=C/c2ccccc2OCc2ccc(OC(F)(F)F)cc2)CCCCc2nnn[nH]2)cc1 (centres unmarked) [Example 38]
150 | O=C(O)c1ccc(CCC(/C=C/c2ccccc2OCc2cc(C(F)(F)F)cc(C(F)(F)F)c2)CCCCc2nnn[nH]2)cc1 (centres unmarked) [Example 39]

same assay, conditions: rabbit saphenous artery rings, contraction induced by phenylephrine

SMILES | IC50 [nM]
CC(C)(C)c1ccc(COc2ccccc2/C=C/C(CCc2ccc(-c3nnn[nH]3)cc2)Cc2ccc(C(=O)O)cc2)cc1 (single isomer, unassigned) [Example 5, 4-((3E)-4-{2-[(4-tert-Butylbenzyl)oxy]phenyl}-2-{2-[4-(1H-tetrazol-5-yl)phenyl]ethyl}but-3-en-1-yl)benzoic acid] | 2510
CC(C)(C)c1ccc(COc2ccccc2/C=C/C(CCc2ccc(C(=O)O)cc2)Cc2ccc(-c3nnn[nH]3)cc2)cc1 (single isomer, unassigned) [Example 23, 4-{(4E)-5-{2-[(4-tert-Butylbenzyl)oxy]phenyl}-3-[4-(1H-tetrazol-5-yl)benzyl]pent-4-en-1-yl}benzoic acid] | 3890
CC(C)(C)c1ccc(COc2ccccc2/C=C/C(CCc2ccc(C(=O)O)cc2)Cc2ccc(-c3nnn[nH]3)cc2)cc1 (single isomer, unassigned) [Example 24, 4-{(4E)-5-{2-[(4-tert-Butylbenzyl)oxy]phenyl}-3-[4-(1H-tetrazol-5-yl)benzyl]pent-4-en-1-yl}benzoic acid] | 102
CC(C)(C)c1ccc(COc2ccccc2/C=C/C(CCCCc2nnn[nH]2)CCc2ccc(C(=O)O)cc2)cc1 (single isomer, unassigned) [Example 26, 4-[3-((E)-2-{2-[(4-tert-Butylbenzyl)oxy]phenyl}vinyl)-7-(1H-tetrazol-5-yl)heptyl]benzoic acid] | 559
CC(C)(C)c1ccc(COc2ccccc2/C=C/C(CCCCc2nnn[nH]2)CCc2ccc(C(=O)O)cc2)cc1 (single isomer, unassigned) [Example 27, 4-[3-((E)-2-f{2-[(4-tert-Butylbenzyl)oxy]phenyl}vinyl)-7-(1H-tetrazol-5-yl)heptyl]benzoic acid] | 9.7

target: T1, Heme-containing sGC (recombinant soluble guanylate cyclase) (Rattus norvegicus, UniProt P20595); experiment: Stimulation of recombinant soluble guanylate cyclase (sGC) in vitro, heme-containing enzyme; type: biochemical; conditions: 0.1 μM DEA/NO, 0.0 μM Example 6
T1 construct: made in house
T1 sequence (P20595 1-619): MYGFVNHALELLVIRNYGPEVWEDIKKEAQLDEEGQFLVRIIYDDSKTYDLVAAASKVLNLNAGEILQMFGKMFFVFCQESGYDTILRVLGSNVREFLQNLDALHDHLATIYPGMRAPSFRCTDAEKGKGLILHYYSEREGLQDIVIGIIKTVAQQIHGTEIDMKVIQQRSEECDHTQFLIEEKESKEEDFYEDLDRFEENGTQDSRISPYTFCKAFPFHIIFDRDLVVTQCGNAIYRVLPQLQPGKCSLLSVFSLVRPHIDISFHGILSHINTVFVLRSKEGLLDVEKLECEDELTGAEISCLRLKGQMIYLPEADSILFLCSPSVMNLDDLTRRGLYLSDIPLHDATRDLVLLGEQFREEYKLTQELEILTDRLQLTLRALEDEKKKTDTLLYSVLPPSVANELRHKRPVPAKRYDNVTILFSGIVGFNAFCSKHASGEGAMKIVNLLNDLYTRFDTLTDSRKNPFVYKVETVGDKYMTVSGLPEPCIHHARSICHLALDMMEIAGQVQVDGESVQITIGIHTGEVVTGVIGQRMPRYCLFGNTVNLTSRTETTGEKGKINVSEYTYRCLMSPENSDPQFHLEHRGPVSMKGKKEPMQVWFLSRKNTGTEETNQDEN
T1 sequence (P19686 1-690 partner): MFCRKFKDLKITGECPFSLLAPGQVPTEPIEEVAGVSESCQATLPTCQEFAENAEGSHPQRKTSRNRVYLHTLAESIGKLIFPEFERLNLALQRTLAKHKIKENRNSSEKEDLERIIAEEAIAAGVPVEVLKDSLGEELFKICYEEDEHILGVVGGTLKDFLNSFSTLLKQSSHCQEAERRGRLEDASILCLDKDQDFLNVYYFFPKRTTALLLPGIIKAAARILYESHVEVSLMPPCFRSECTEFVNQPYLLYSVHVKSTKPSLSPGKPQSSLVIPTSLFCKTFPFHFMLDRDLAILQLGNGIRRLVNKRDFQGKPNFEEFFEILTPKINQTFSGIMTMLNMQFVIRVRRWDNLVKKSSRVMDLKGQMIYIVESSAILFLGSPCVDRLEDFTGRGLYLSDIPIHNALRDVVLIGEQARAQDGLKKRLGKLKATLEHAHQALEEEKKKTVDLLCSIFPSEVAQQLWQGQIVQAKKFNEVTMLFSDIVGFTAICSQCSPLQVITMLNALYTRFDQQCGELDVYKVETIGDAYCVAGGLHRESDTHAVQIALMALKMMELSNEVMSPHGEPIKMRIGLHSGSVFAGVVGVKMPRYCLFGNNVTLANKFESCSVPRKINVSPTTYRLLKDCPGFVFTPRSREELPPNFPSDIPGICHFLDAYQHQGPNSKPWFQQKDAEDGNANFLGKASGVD
Description: Hoenicka, E. M. Becker, H. Apeler, T. Sirichoke, H. Schroeder, R. Gerzer and J.-P. Stasch, “Purified soluble guanylyl cyclase expressed in a baculovirus/Sf9 system: Stimulation by YC-1, nitric oxide, and carbon oxide”, J. Mol. Med. 77 (1999), 14-23. The heme-free guanylate cyclase is obtained by adding Tween 20 to the sample buffer (0.5% in the final concentration).
(§1) The activation of sGC by a test substance is reported as n-fold stimulation of the basal activity.

SMILES | Stimulation (n-fold) Heme-containing sGC by DEA/NO alone [n-fold]
CCN(CC)[N+]([O-])=NO [DEA/NO, 2-(N,N-diethylamino)diazenolate 2-oxide, reference compound] | 64.1

same assay, conditions: 10 μM ODQ, 0.0 μM Example 6

SMILES | Stimulation (n-fold) Heme-containing sGC with ODQ alone [n-fold]
O=c1onc2cnc3ccccc3n12 [ODQ, 1H-1,2,4-oxadiazole-(4,3a)-quinoxalin-1-one, reference compound] | 2.4

target: T2, Heme-free sGC (recombinant soluble guanylate cyclase) (Rattus norvegicus, UniProt P20595); experiment: Stimulation of recombinant soluble guanylate cyclase (sGC) in vitro, heme-free enzyme; type: biochemical; conditions: 10 μM ODQ, 0.0 μM Example 6
T2 construct: made in house
T2 sequence (P20595 1-619): T1 sequence (P20595 1-619)
T2 sequence (P19686 1-690 partner): T1 sequence (P19686 1-690 partner)
Experimental: Investigations on the stimulation of recombinant soluble guanylate cyclase (sGC) by the compounds according to the invention with and without sodium nitroprusside, and with and without the heme-dependent sGC inhibitor 1H-1,2,4-oxadiazole-(4,3a)-quinoxalin-1-one (ODQ) are carried out by the method described in detail in the following reference: M. Hoenicka, E. M. Becker, H. Apeler, T. Sirichoke, H. Schroeder, R. Gerzer and J.-P. Stasch, “Purified soluble guanylyl cyclase expressed in a baculovirus/Sf9 system: Stimulation by YC-1, nitric oxide, and […]”, J. Mol. Med. 77 (1999), 14-23. The heme-free guanylate cyclase is obtained by adding Tween 20 to the sample buffer (0.5% in the final concentration).
as §1

SMILES | Stimulation (n-fold) Heme-free sGC with ODQ alone [n-fold]
O=c1onc2cnc3ccccc3n12 [ODQ, 1H-1,2,4-oxadiazole-(4,3a)-quinoxalin-1-one, reference compound] | 1.2
